Values quoted from earlier work, collected in patent US20070071818A1 (ARDANA BIOSCIENCE LIMITED, priority 2002, published 2007).
Counter-ions that a name gives are not always drawn.

Legend:
female sexual response = details: female sexual dysfunction
erectile response = details: oral administration; psychogenic patient
[1] = test system: female sexual arousal disorder; details: oral; menopausal women with female sexual arousal disorder

Structure (SMILES): CCCc1nn(C)c2c(=O)[nH]c(-c3cc(S(=O)(=O)N4CCN(C)CC4)ccc3OCC)nc12 [sildenafil]
- subjective and physiologic parameters of the female sexual response (female sexual response): significantly improve

Structure (SMILES): CN1CCc2cccc3c2[C@H]1Cc1ccc(O)c(O)c1-3 [apomorphine, (6aR)-5,6,6a,7-Tetrahydro-6-methyl-4H-dibenzo[de,g]quinoline-10,11-diol hydrochloride hemihydrate]
- erectile response (erectile response): induce an erection

Structure (SMILES): Cc1ccc(N(CC2=NCCN2)c2cccc(O)c2)cc1 [phentolamine]
- effect across all measures of arousal [1]: mild positive effect
